Data published in US11566007B2, “Ras inhibitors” (Revolution Medicines, Inc., priority 2019, dated 2023).

Assays:
[1] = tested on: NCI-H358 cells (K-Ras G12C); assay: Potency assay: pERK in NCI-H358 cells; format: cell-based, human; settings: Homo sapiens, NCI-H358; H358 KRAS G12C; read-out: pERK EC50
Outline: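 Compounds are dosed as ten 3-fold dilutions from a 10 mM DMSO stock, in duplicate, and left on cells for 4 h at 37 °C, 5% CO2. Phospho-ERK1/2 is then quantified by AlphaLISA SureFire Ultra or In-Cell Western, and IC50 is derived from a 4-parameter sigmoid against log concentration.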

[2] = tested on: NCI-H358 (K-Ras G12C); assay: CellTiter-Glo cell viability assay, NCI-H358; format: cell-based, human; settings: Homo sapiens, NCI-H358, 120 h, NCI-H358, 5-day treatment; class symbols; read-out: Additional H358 Cell Viability assay data (K-Ras G12C, IC50)
Outline: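 Four-parameter logistic fits were applied to luminescence data normalized against DMSO-treated wells. Readings were taken on day 5 following direct compound addition, after roughly 30 minutes at room temperature.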

[3] = target: K-Ras G12C (Homo sapiens (Human), UniProt P01116+P62937, G12C); assay: Ras-Raf (BRAF RBD) disruption / FRET / MOA assay, KRAS G12C; format: biochemical; settings: KRAS G12C; Ras-Raf disruption/FRET/MOA assay; read-out: IC50* KRAS G12C FRET data
K-Ras G12C, sequence (P01116-2 other isoform, or with tags, fused parts or gaps G12C): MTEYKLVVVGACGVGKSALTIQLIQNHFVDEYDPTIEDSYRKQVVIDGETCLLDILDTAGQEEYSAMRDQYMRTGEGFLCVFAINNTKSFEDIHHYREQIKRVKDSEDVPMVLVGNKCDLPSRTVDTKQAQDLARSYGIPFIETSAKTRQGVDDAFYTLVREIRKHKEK
K-Ras G12C, sequence (P62937 whole entry): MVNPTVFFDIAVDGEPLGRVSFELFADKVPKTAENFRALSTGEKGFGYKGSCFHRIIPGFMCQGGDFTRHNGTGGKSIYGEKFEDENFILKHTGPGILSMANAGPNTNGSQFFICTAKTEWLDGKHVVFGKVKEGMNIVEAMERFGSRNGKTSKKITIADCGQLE
Outline: (§1)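 Ternary complex formation (Ras–compound–cyclophilin A) displacing BRAF RBD, monitored by TR-FRET. Three hours at 25° C with compound (top 30 μM final), then 1.5 h with the labelled antibodies. Lower ratio than DMSO indicates disruption; IC50 reported.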

[4] = target: K-Ras G13C (Homo sapiens (Human), UniProt P01116+P62937, G13C); assay: Ras-Raf (BRAF RBD) disruption / FRET / MOA assay, KRAS G13C; format: biochemical; settings: KRAS G13C; Ras-Raf disruption/FRET/MOA assay; read-out: IC50* KRAS G13C FRET data
K-Ras G13C, sequence (P01116-2 other isoform, or with tags, fused parts or gaps G13C): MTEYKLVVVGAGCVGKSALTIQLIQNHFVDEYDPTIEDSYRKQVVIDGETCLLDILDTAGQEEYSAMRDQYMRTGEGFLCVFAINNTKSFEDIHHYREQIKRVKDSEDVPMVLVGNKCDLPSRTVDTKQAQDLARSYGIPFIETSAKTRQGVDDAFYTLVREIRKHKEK
K-Ras G13C, sequence (P62937 whole entry): as the sequence (P62937 whole entry) above
Outline: as §1

[5] = target: KRAS G12S (Homo sapiens (Human), UniProt P01116+P62937, G12S); assay: Ras-Raf (BRAF RBD) disruption / FRET / MOA assay, KRAS G12S; format: biochemical; settings: Ras-Raf disruption/FRET/MOA assay; class symbols; read-out: KRAS G12S FRET data IC50
KRAS G12S, sequence (P01116-2 other isoform, or with tags, fused parts or gaps G12S): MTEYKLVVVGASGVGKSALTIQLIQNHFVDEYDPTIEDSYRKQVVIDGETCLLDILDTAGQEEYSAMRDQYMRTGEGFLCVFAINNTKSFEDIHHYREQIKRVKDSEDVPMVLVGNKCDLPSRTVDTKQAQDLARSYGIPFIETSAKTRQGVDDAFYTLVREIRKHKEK
KRAS G12S, sequence (P62937 whole entry): as the sequence (P62937 whole entry) above
Outline: as §1

[6] = target: KRAS G12D (Homo sapiens (Human), UniProt P01116+P62937, G12D); assay: Ras-Raf (BRAF RBD) disruption / FRET / MOA assay, KRAS G12D; format: biochemical; settings: Ras-Raf disruption/FRET/MOA assay; class symbols; read-out: KRAS G12D FRET data IC50
KRAS G12D, sequence (P01116-2 other isoform, or with tags, fused parts or gaps G12D): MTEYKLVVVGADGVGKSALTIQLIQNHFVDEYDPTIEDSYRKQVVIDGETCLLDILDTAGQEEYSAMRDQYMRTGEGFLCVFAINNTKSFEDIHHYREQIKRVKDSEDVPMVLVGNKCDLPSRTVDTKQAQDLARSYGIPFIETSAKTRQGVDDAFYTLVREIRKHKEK
KRAS G12D, sequence (P62937 whole entry): as the sequence (P62937 whole entry) above
Outline: as §1

[7] = target: KRAS G12V (Homo sapiens (Human), UniProt P01116+P62937, G12V); assay: Ras-Raf (BRAF RBD) disruption / FRET / MOA assay, KRAS G12V; format: biochemical; settings: read-out: IC50* KRAS G12V FRET data
KRAS G12V, sequence (P01116-2 other isoform, or with tags, fused parts or gaps G12V): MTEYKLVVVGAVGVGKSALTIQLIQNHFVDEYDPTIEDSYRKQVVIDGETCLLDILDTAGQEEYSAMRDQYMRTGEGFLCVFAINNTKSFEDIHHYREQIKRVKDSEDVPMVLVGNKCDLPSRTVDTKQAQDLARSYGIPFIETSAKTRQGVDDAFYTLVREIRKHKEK
KRAS G12V, sequence (P62937 whole entry): as the sequence (P62937 whole entry) above
Outline: as §1

[8] = target: KRAS WT (Homo sapiens (Human), UniProt P01116+P62937); assay: Ras-Raf (BRAF RBD) disruption / FRET / MOA assay, KRAS WT; format: biochemical; settings: read-out: IC50* KRAS WT FRET data
KRAS WT, sequence (P01116-2 other isoform, or with tags, fused parts or gaps): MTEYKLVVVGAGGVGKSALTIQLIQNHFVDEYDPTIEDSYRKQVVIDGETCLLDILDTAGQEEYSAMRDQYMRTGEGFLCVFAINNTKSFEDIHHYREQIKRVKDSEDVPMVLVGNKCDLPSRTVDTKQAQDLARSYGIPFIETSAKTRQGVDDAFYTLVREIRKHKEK
KRAS WT, sequence (P62937 whole entry): as the sequence (P62937 whole entry) above
Outline: as §1

[9] = target: KRAS G13D (Homo sapiens (Human), UniProt P01116+P62937, G13D); assay: Ras-Raf (BRAF RBD) disruption / FRET / MOA assay, KRAS G13D; format: biochemical; settings: read-out: IC50* KRAS G13D FRET data
KRAS G13D, sequence (P01116-2 other isoform, or with tags, fused parts or gaps G13D): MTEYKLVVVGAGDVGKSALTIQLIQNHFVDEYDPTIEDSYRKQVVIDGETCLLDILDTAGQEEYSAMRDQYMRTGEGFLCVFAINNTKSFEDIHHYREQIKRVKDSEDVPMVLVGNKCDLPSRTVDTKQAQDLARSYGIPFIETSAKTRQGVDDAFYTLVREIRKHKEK
KRAS G13D, sequence (P62937 whole entry): as the sequence (P62937 whole entry) above
Outline: as §1

[10] = target: NRAS G12C (Homo sapiens (Human), UniProt P01111+P62937, G12C); assay: Ras-Raf (BRAF RBD) disruption / FRET / MOA assay, NRAS G12C; format: biochemical; settings: read-out: IC50* NRAS G12C FRET data
NRAS G12C, sequence (P01111 whole entry G12C): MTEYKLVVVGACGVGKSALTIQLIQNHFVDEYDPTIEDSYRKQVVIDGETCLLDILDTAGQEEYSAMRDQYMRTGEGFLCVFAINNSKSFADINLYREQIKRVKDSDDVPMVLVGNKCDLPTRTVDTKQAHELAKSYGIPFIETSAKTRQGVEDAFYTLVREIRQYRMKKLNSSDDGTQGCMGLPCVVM
NRAS G12C, sequence (P62937 whole entry): as the sequence (P62937 whole entry) above
Outline: as §1

## CCn1c(-c2cccnc2)c2c3cc(ccc31)-c1cc(O)cc(c1)C[C@H](NC(=O)[C@H](C(C)C)N(C)C(=O)[C@H]1CCN(C(=O)C#CCN(C)C)C1)C(=O)N1CCC[C@H](N1)C(=O)OCC(C)(C)C2 [Example A142]
[1]
  EC50: < 5 µM
[2]
  IC50: 0.1 to 1 µM
[3]
  IC50: 0.01 to 0.1 µM
[4]
  IC50: 0.1 to 1 µM
[5]
  IC50: > 10 µM
[6]
  IC50: 1 to 10 µM
[7]
  IC50: > 10 µM
[8]
  IC50: > 10 µM
[9]
  IC50: 1 to 10 µM
[10]
  IC50: 0.01 to 0.1 µM

## C=CC(=O)N1CCN(C(=O)N(C)[C@H](C(=O)N[C@H]2Cc3cc(O)cc(c3)-c3ccc4c(c3)c(c(-c3ccccc3CCOC)n4CC)CC(C)(C)COC(=O)[C@@H]3CCCN(N3)C2=O)C(C)C)C[C@H]1COC [Example A146]
[1]
  EC50: < 5 µM
[2]
  IC50: 0.1 to 1 µM
[3]
  IC50: 0.1 to 1 µM
[4]
  IC50: 0.1 to 1 µM
[5]
  IC50: 1 to 10 µM
[6]
  IC50: > 10 µM
[7]
  IC50: 1 to 10 µM
[8]
  IC50: 1 to 10 µM
[9]
  IC50: 1 to 10 µM
[10]
  IC50: 0.1 to 1 µM

## C=CC(=O)N(C)CC(=O)N(C)[C@H](C(=O)N[C@H]1Cc2cc(O)cc(c2)-c2ccc3c(c2)c(c(-c2cccnc2COC)n3CC)CC(C)(C)COC(=O)[C@@H]2CCCN(N2)C1=O)C(C)C [Example A147]
[1]
  EC50: < 5 µM
[2]
  IC50: 0.01 to 0.1 µM
[3]
  IC50: 0.1 to 1 µM
[4]
  IC50: 0.1 to 1 µM
[5]
  IC50: 0.1 to 1 µM
[6]
  IC50: 1 to 10 µM
[7]
  IC50: 0.1 to 1 µM
[8]
  IC50: 0.1 to 1 µM
[9]
  IC50: 1 to 10 µM
[10]
  IC50: 0.1 to 1 µM

## C#CC(=O)N1CC[C@H](C(=O)N(C)[C@H](C(=O)N[C@H]2Cc3cc(O)cc(c3)-c3ccc4c(c3)c(c(-c3cnccc3[C@H](C)OC)n4CC)CC(C)(C)COC(=O)[C@@H]3CCCN(N3)C2=O)C(C)C)C1 [Example A150]
[1]
  EC50: < 5 µM
[2]
  IC50: < 0.01 µM
[3]
  IC50: 0.01 to 0.1 µM
[4]
  IC50: 0.01 to 0.1 µM
[5]
  IC50: 0.1 to 1 µM
[6]
  IC50: 1 to 10 µM
[7]
  IC50: 0.1 to 1 µM
[8]
  IC50: 0.1 to 1 µM
[9]
  IC50: 0.1 to 1 µM
[10]
  IC50: 0.01 to 0.1 µM

## CCn1c(-c2cccnc2)c2c3cc(ccc31)-c1cccc(c1)C[C@H](NC(=O)[C@H](C(C)C)N(C)C(=O)[C@H]1CCN(C(=O)C#CCN(C)C)C1)C(=O)N1CCC[C@H](N1)C(=O)OCC(C)(C)C2 [Example A152]
[1]
  EC50: < 5 µM
[2]
  IC50: 0.01 to 0.1 µM
[3]
  IC50: 0.01 to 0.1 µM
[4]
  IC50: 1 to 10 µM
[5]
  IC50: > 10 µM
[6]
  IC50: 1 to 10 µM
[7]
  IC50: 1 to 10 µM
[8]
  IC50: 1 to 10 µM
[9]
  IC50: 1 to 10 µM
[10]
  IC50: 0.01 to 0.1 µM

## CCn1c(-c2cnccc2COC)c2c3cc(ccc31)-c1cc(O)cc(c1)C[C@H](NC(=O)[C@H](C(C)C)N(C)C(=O)[C@H]1CCN(C(=O)C(C)(C)N(C)C)C1)C(=O)N1CCC[C@H](N1)C(=O)OCC(C)(C)C2 [Example A153]
[1]
  EC50: < 5 µM
[2]
  IC50: 0.1 to 1 µM
[3]
  IC50: 0.01 to 0.1 µM
[4]
  IC50: 0.1 to 1 µM
[5]
  IC50: 0.1 to 1 µM
[6]
  IC50: 0.1 to 1 µM
[7]
  IC50: 0.1 to 1 µM
[8]
  IC50: 0.1 to 1 µM
[9]
  IC50: 0.1 to 1 µM
[10]
  IC50: 0.01 to 0.1 µM

## C=CC(=O)N1CC[C@H](C(=O)N(C)[C@H](C(=O)N[C@H]2Cc3cc(O)cc(c3)-c3ccc4c(c3)c(c(-c3cn(C)nc3[C@H](C)OC)n4CC)CC(C)(C)COC(=O)[C@@H]3CCCN(N3)C2=O)C(C)C)C1 [Example A154]
[1]
  EC50: < 5 µM
[2]
  IC50: 0.01 to 0.1 µM
[3]
  IC50: 0.01 to 0.1 µM
[4]
  IC50: 1 to 10 µM
[5]
  IC50: 0.1 to 1 µM
[6]
  IC50: 1 to 10 µM
[7]
  IC50: 0.1 to 1 µM
[8]
  IC50: 1 to 10 µM
[9]
  IC50: 1 to 10 µM
[10]
  IC50: 0.01 to 0.1 µM

## CCn1c(-c2cccnc2COC)c2c3cc(ccc31)-c1cc(C)cc(c1)C[C@H](NC(=O)[C@H](C(C)C)N(C)C(=O)[C@H]1CCN(C(=O)C#CCN(C)C)C1)C(=O)N1CCC[C@H](N1)C(=O)OCC(C)(C)C2 [Example A156]
[1]
  EC50: < 5 µM
[2]
  IC50: 0.01 to 0.1 µM
[3]
  IC50: 0.01 to 0.1 µM
[4]
  IC50: 1 to 10 µM
[5]
  IC50: > 10 µM
[6]
  IC50: 1 to 10 µM
[7]
  IC50: > 10 µM
[8]
  IC50: > 10 µM
[9]
  IC50: 1 to 10 µM
[10]
  IC50: 0.1 to 1 µM
